Data: US20230416329A1, “A PEPTIDE WITH DISULFIDE BONDS AND INHIBITORY ACTIVITY AGAINST SERINE PROTEASES, DERIVED HYBRID PEPTIDES THEREOF, AND USES THEREOF” (INSTITUTE OF MATERIA MEDICA , CHINESE ACADEMY OF MEDICAL …, priority 2020, published 2023)
Each block holds one compound with its values, some of them ahead of it. Bridge positions count the residues as written; N and C are the ends. Ends that are not written are not given here.

Legend:
[1] = Stability of GLP-1 and its analogues in human serum; conditions: 25% (v/v) human serum
DPP-IV = DPP-IV (Homo sapiens, UniProt P27487); test: Tolerance of GLP-1 and its analogues to DPP-IV (RP-HPLC remaining peak area); assay type: in vitro ADME; conditions: peptide 25 μM, DPP-IV 0.5 ng/μL, 37° C.
Description: (§1) Mix by centrifugation at 8000 rpm for 30 seconds.
(2) Arrange a certain volume of 0.005 μg/μL DPP-IV solution in another sterile EP.

elastase = elastase (Sus scrofa, UniProt P00772); test: in vitro
Description: FIG. 19. […] At different time point, 25 μL aliquots was taken out, and 10% (v/v) TFA was added to terminate the reaction.
as §1
Arrange a certain volume of 0.5 μg/μL elastase solution in another sterile EP. Incubate the EP tubes containing peptides and enzymes at 37° C. for 5 min, and then add 4.5 μL of elastase solution to each EP tube containing peptides and mix well. Start timing and remove 25 μL of reaction solution at 1.5, 3.0, 4.5, 6.0, 9.0, 15.0, 30.0, and 60.0 min later, respectively. Add 3.75 μL of 10% TFA to terminate the reaction and mix well by centrifugation at 8000 rpm for 30 seconds.
Referring to the experimental method in Example 5, in vitro stability of salmon Calcitonin analogs with oral administration activity to the enzymatic hydrolysis by trypsin, chymotrypsin and elastase were performed.
Referring to the experimental method in Example 5, in vitro stability of IL-17A inhibitory peptides towards the enzymatic hydrolysis by trypsin, chymotrypsin and elastase were performed.

chymotrypsin = chymotrypsin (Bos taurus, UniProt P00766); test: Stability of hybrid peptides (GLP-1, PCSK9, calcitonin, 17A analogues) against chymotrypsin hydrolysis (RP-HPLC remaining peak area)
Summary of the method: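 RP-HPLC peak area tracked intact peptide after 37 °C digestion with chymotrypsin (0.05 μg/μL solution, 5 min preincubation). Samples were withdrawn at 1.5-60.0 min and stopped with 10% TFA.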

NEP24.11 = NEP24.11 (Homo sapiens, UniProt P08473); test: Tolerance of GLP-1 and its analogues to NEP24.11 (RP-HPLC remaining peak area); assay type: in vitro ADME; conditions: after 8 hours
Description: as §1
Arrange a certain volume of 0.04 μg/μL NEP24.11 enzyme solution in another sterile EP.

[2] = test system: P407-induced hyperlipidemia mice; test: Subcutaneous injection of PCSK9 inhibitory peptide, serum total cholesterol in P407-induced hyperlipidemia mice; assay type: in vivo, mouse; conditions: serum, subcutaneous 2 μmol/kg, mean ± sd; for TC 15 min: 15 min after administration; for TC 30 min: 30 min after administration; for TC 60 min: 60 min after administration; for TC 90 min: 90 min after administration
Description: The experimental peptide sample was prepared using PEG400 with a final concentration of […], and the final concentration of PEG400 is 20% (w/v). Normal ICR mice were fasted overnight with water ad libitum. The next day, all of the mice were randomly divided into model control group (Con) and polypeptide administration group (2 μmol/kg) according to body weight. Then, all of the mice were intraperitoneally injected with P407 (500 mg/kg) and fed with feed 2 hours later. Six mice were taken as a normal control group (Nor). After 24 hours, the mice in Con were subcutaneously injected with saline containing 20% PEG400, and the mice in the treatment group were given peptides. Then, the blood was taken at different time points after administration to determine the serum total cholesterol (TC) level. In consideration of the complexity of factors affecting serum LDL-C levels, especially the differences between single and long-term administration, the in vivo activity of PCSK9 inhibitory peptide is mainly observed for changes in serum TC levels.

[3] = biological target: T1, interaction of PCSK9-LDLR (Homo sapiens, UniProt Q8NBP7); test: PCSK9-LDLR in vitro binding assay (inhibitory rate); conditions: for inhibitory activity on the interaction between PCSK9 and LDLR (in words): in vitro
T1 construct: purchased MBL Company, Beijing, China CY-8150
Description: Polypeptide PCSK9_1-14 (SEQ ID NOs: 210-223) is dissolved in pure water or DMSO. 85 μL reaction buffer, 5 μL 1 mM polypeptide sample and 10 μL 750 ng/mL PCSK9 protein was pre-incubated at room temperature for 20 minutes before being added to a 96 well plate. The OD450/540 nm value was measured according to the instructions of the PCSK9-LDLR in Vitro Binding Assay Kit (CY-8150, MBL Company, Beijing, China). Solvent control: replace polypeptide with 5 μL solvent. In 100 μL reaction system, the final concentration of the polypeptide and PCSK9 is 50 μM and 75 ng/mL, respectively.
Inhibition rate of polypeptide (%)=(OD450/540 nm(solvent control)−OD450/540 nm (sample))/OD450/540 nm(solvent control)×100

[4] = isolated enzyme elastase, pH 8, Remaining peak area (%)/elastase

Sequence of elastase (P00772 27-266): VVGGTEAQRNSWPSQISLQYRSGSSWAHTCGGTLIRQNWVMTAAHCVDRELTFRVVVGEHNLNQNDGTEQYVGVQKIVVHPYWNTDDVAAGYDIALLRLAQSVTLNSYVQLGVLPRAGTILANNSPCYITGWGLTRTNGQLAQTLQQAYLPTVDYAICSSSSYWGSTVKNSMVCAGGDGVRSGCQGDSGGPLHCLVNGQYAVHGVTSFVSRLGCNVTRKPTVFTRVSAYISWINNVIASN
Sequence of DPP-IV (P27487 whole entry, species assumed): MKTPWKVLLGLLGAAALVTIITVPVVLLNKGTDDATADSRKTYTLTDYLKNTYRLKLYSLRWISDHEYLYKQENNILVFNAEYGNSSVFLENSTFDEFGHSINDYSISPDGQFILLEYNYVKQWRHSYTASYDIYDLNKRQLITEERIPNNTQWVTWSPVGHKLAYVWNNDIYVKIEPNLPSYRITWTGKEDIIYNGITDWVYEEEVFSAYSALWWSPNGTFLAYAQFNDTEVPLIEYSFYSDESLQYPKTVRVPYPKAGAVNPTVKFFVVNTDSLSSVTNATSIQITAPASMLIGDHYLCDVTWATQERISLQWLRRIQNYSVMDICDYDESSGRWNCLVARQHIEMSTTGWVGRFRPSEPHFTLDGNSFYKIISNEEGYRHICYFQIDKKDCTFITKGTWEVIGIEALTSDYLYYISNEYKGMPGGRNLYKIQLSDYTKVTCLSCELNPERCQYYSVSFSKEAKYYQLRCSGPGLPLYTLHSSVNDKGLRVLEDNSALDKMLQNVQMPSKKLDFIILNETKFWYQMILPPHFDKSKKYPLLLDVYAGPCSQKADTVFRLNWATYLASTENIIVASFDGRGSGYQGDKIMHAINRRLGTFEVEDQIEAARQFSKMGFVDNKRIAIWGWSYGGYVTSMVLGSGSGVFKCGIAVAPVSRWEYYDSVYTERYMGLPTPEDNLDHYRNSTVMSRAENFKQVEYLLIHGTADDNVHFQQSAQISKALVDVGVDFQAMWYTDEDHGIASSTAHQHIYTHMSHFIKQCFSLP
Sequence of NEP24.11 (P08473 whole entry): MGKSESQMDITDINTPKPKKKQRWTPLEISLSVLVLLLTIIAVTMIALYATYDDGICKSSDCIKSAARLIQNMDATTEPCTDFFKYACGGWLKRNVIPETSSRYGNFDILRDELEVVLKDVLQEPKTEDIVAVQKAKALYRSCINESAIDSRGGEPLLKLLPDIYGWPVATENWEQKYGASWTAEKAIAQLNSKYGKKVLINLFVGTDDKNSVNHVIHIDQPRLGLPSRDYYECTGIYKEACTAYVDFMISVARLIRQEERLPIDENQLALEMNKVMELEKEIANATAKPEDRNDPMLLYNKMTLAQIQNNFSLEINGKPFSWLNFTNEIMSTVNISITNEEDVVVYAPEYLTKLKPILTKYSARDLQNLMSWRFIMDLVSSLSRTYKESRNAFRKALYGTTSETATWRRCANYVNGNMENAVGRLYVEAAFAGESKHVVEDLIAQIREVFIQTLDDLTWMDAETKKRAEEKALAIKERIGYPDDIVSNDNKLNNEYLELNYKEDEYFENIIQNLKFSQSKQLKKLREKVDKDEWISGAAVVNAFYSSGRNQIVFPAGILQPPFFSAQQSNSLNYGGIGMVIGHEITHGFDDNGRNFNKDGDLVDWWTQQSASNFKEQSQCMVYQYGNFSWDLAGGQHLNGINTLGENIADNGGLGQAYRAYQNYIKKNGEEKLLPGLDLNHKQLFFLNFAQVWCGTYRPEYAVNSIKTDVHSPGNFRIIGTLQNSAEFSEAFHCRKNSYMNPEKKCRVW

Compound: CC[C@H](C)[C@H](NC(=O)[C@H](Cc1ccccc1)NC(=O)[C@H](CCC(=O)O)NC(=O)[C@H](CCCCN)NC(=O)[C@H](C)NC(=O)[C@H](C)NC(=O)[C@H](CCC(N)=O)NC(=O)CNC(=O)[C@H](CCC(=O)O)NC(=O)[C@H](CC(C)C)NC(=O)[C@H](Cc1ccc(O)cc1)NC(=O)[C@H](CO)NC(=O)[C@H](CO)NC(=O)[C@@H](NC(=O)[C@H](CC(=O)O)NC(=O)[C@H](CO)NC(=O)[C@@H](NC(=O)[C@H](Cc1ccccc1)NC(=O)[C@@H](NC(=O)CNC(=O)[C@H](CCC(=O)O)NC(=O)[C@H](C)NC(=O)[C@H](Cc1c[nH]cn1)NC(=O)CNC(=O)CNC(=O)[C@@H](NC(=O)[C@@H]1CCCN1C(=O)[C@@H](NC(=O)CNC(=O)CNC(=O)[C@H](Cc1ccc(O)cc1)NC(=O)[C@@H]1CSSC[C@H](NC(=O)[C@@H](N)CC(C)C)C(=O)N[C@@H]([C@@H](C)O)C(=O)N[C@@H](C)C(=O)N[C@@H](CO)C(=O)N[C@@H]([C@@H](C)CC)C(=O)N2CCC[C@H]2C(=O)N2CCC[C@H]2C(=O)N[C@@H](CCC(N)=O)C(=O)N1)[C@@H](C)CC)[C@@H](C)CC)[C@@H](C)O)[C@@H](C)O)C(C)C)C(=O)N[C@@H](C)C(=O)N[C@@H](Cc1c[nH]c2ccccc12)C(=O)N[C@@H](CC(C)C)C(=O)N[C@H](C(=O)N[C@@H](CCCCN)C(=O)NCC(=O)N[C@@H](CCCNC(=N)N)C(=O)NCC(=O)NCC(=O)N[C@@H](CCCCN)C(=O)O)C(C)C [EC1-D-GLP-1]
Remaining peak area (%)/human serum ([1]; 0.0 h, peptide 0.03 mM, 37° C.): 100.0 ± 0.0%
remaining at 0.5 h, 0.03 mM ([1]; human, pH 7): 72.8 ± 0.8%
remaining at 2 h, 0.03 mM ([1]; human, pH 7): 40.8 ± 4.3%
remaining at 4 h, 0.03 mM ([1]; human, pH 7): 23.4 ± 1.9%
remaining at 8 h, 0.03 mM ([1]; human, pH 7): 11.7 ± 2%
remaining at 12 h, 0.03 mM ([1]; human, pH 7): 3.4 ± 0.4%
Remaining peak area (%)/DPP-IV (DPP-IV; 0.0 h): 100.0 ± 0.0%
remaining at 0.5 h, 25 μM (DPP-IV; isolated DPP-IV enzyme in buffer, pH 8, 0.5 h): 101 ± 1.7%
remaining at 2 h, 25 μM (DPP-IV; isolated DPP-IV enzyme in buffer, pH 8, 2.0 h): 99.6 ± 0.6%
remaining at 4 h, 25 μM (DPP-IV; isolated DPP-IV enzyme in buffer, pH 8, 4.0 h): 104.5 ± 0.3%
remaining at 8 h, 25 μM (DPP-IV; isolated DPP-IV enzyme in buffer, pH 8, 8.0 h): 97.4 ± 4.2%
remaining at 12 h, 25 μM (DPP-IV; isolated DPP-IV enzyme in buffer, pH 8, 12.0 h): 93.6 ± 4.9%
Remaining peak area (%)/elastase (elastase; isolated enzyme elastase, 1 h, 60 μM, pH 8): 24.2 ± 0.6%
remaining at 0.025 h, 60 μM (elastase; [4]): 86 ± 5.4%
remaining at 0.05 h, 60 μM (elastase; [4]): 81.9 ± 3.9%
remaining at 0.075 h, 60 μM (elastase; [4]): 80.3 ± 2%
remaining at 0.1 h, 60 μM (elastase; [4]): 80.1 ± 3.4%
remaining at 0.15 h, 60 μM (elastase; [4]): 76.2 ± 1.6%
remaining at 0.25 h, 60 μM (elastase; [4]): 70.4 ± 4.5%
remaining at 0.5 h, 60 μM (elastase; [4]): 40.9 ± 1.1%
remaining at 1 h, 60 μM (elastase; [4]): ~20%

Compound: PCSK9_8: Pep2-8 analogue containing the anti-trypsin peptide scaffold BT9 (Table 23) (TVFTSGCGRATKSIPPICFSWEEYLDWV; disulfide 7-18 (inferred))
TC 15 min [2]: 2269 ± 489 µg/mL
TC 30 min [2]: 2216 ± 465 µg/mL
TC 60 min [2]: 2074 ± 470 µg/mL
TC 90 min [2]: 2037 ± 509 µg/mL
inhibitory activity on the interaction between PCSK9 and LDLR (in words) [3]: good inhibitory activity on the interaction between PCSK9 and LDLR
inhibitory activity on the interaction between PCSK9 and LDLR (in words) ([3]; listed as SEQ ID NO: 217): good inhibitory effects in vitro

Compound: PCSK9_13: Pep2-8 analogue of Table 23 (GTNEALDNNCGRATKSIPPICFTVFTS; disulfide 10-21 (inferred))
Inhibitory rate on the interaction of PCSK9-LDLR ([3]; sample 50 μM, PCSK9 75 ng/mL): 15.8 ± 10.1%

Compound: Phe-Cys-Thr-Tyr-Ser-Ile-Pro-Pro-Gln-Cys-Tyr-Gly-Gly-Thr-Val-Phe-Thr-Ser-Trp-Glu-Glu-Ala-Leu-Asp-Trp-Val (FCTYSIPPQCYGGTVFTSWEEALDWV; disulfide 2-10 (inferred)) [PCSK9_3CH]
TC 15 min [2]: 3509 ± 1031 µg/mL
TC 30 min [2]: 3828 ± 774 µg/mL
TC 60 min [2]: 3930 ± 1509 µg/mL
TC 90 min [2]: 3435 ± 838 µg/mL
inhibitory activity on the interaction between PCSK9 and LDLR (in words) [3]: good inhibitory activity on the interaction between PCSK9 and LDLR
inhibitory activity on the interaction between PCSK9 and LDLR (in words) ([3]; listed as SEQ ID NO: 226): good inhibitory effects in vitro

Now from value to compound, other results behind:

stability towards chymotrypsin hydrolysis (in words) (chymotrypsin): completely degraded
Remaining peak area (%)/elastase (elastase; 30.0 min, peptide 60 μM, elastase 10 ng/μL, 37° C.): no GLP-1 prototype molecule was detected
Compound: CC[C@H](C)[C@H](NC(=O)[C@H](Cc1ccccc1)NC(=O)[C@H](CCC(=O)O)NC(=O)[C@H](CCCCN)NC(=O)[C@H](C)NC(=O)[C@H](C)NC(=O)[C@H](CCC(N)=O)NC(=O)CNC(=O)[C@H](CCC(=O)O)NC(=O)[C@H](CC(C)C)NC(=O)[C@H](Cc1ccc(O)cc1)NC(=O)[C@H](CO)NC(=O)[C@H](CO)NC(=O)[C@@H](NC(=O)[C@H](CC(=O)O)NC(=O)[C@H](CO)NC(=O)[C@@H](NC(=O)[C@H](Cc1ccccc1)NC(=O)[C@@H](NC(=O)CNC(=O)[C@H](CCC(=O)O)NC(=O)[C@H](C)NC(=O)[C@@H](N)Cc1c[nH]cn1)[C@@H](C)O)[C@@H](C)O)C(C)C)C(=O)N[C@@H](C)C(=O)N[C@@H](Cc1c[nH]c2ccccc12)C(=O)N[C@@H](CC(C)C)C(=O)N[C@H](C(=O)N[C@@H](CCCCN)C(=O)NCC(=O)N[C@@H](CCCN=C(N)N)C(=O)NCC(=O)O)C(C)C [GLP-1 (7-37), reference compound]
degradation by NEP24.11 (in words) (NEP24.11): almost completely degraded

inhibitory activity on the interaction between PCSK9 and LDLR (in words) ([3]; listed as SEQ ID NO: 212): good inhibitory effects in vitro
Compound: CGRATKSIPPICFGTVFTSWEEALDWV (cysteine pairing not given here)
TC 15 min [2]: 3466 ± 662 µg/mL
TC 30 min [2]: 3490 ± 741 µg/mL
TC 60 min [2]: 3294 ± 649 µg/mL
TC 90 min [2]: 3265 ± 678 µg/mL
inhibitory activity on the interaction between PCSK9 and LDLR (in words) [3]: good inhibitory activity on the interaction between PCSK9 and LDLR

inhibitory activity on the interaction between PCSK9 and LDLR (in words) ([3]; listed as SEQ ID NO: 227): good inhibitory effects in vitro
Compound: ICTASIPPICQGTVFTSWEEALDWV (cysteine pairing not given here)
TC 15 min [2]: 2885 ± 769 µg/mL
TC 30 min [2]: 2673 ± 724 µg/mL
TC 60 min [2]: 2695 ± 699 µg/mL
TC 90 min [2]: 2605 ± 759 µg/mL
inhibitory activity on the interaction between PCSK9 and LDLR (in words) [3]: good inhibitory activity on the interaction between PCSK9 and LDLR
